{
  "source": "patent US20260041617A1",
  "about": "“COSMETIC COMPOSITION APPLICABLE TO THE SKIN AND BASED ON A VOLATILE MIXTURE OF ALKANES” (BIOSYNTHIS, priority 2022, published 2026)",
  "test": "Biodegradability by OECD 301F method (manometric respirometry test)",
  "procedure": "For the purposes of the present invention, the OECD 301F method makes it possible to assess the biodegradability of a substance by a manometric respirometry test.\nThe biodegradability of a volatile mixture of alkanes used in the cosmetic compositions applicable to the skin according to the invention was measured according to the OECD 301F method. For comparison, the degradation of isododecane (CAS 13475-82-6) was also measured with this method.\nThe OECD 301F method is used to characterize the ease of biodegradation of a substance by a manometric respirometry test.",
  "data": [
    {"compound": "CC(CC(C)(C)C)CC(C)(C)C", "note": "[Isododecane (CAS 13475-82-6), 2,2,4,6,6-pentamethylheptane]", "values": [
      {"measurement": "Percentage of degradation according to the OECD 301F method", "result": 0, "unit": "%"},
      {"measurement": "biodegradable according to the OECD 301F method", "setting": "result in words", "result": "not biodegradable"}
    ]}
  ]
}
